This is an account of results in patent publication US20080176787A1, “Parathyroid hormone analogues and methods of use” (priority 2005, published 2008).

A word on the bioavailability: it is dose-corrected exposure relative to a reference, in per cent. Usually Tmax stands for the time from dosing to the highest level. One may read the Cmax as the peak of the concentration-time curve.

One data set concerns rats. Put plainly: Rat oncogenicity study, 104 weeks subcutaneous. It is filed as in vivo. The conditions noted are these: 0.5, 5, 30, and 50 μg/kg/day SC. As for the experimental part: Prior art PTHs cause osteosarcomas in animals if administered over a course of two years. The PTH peptides of the present invention, including Ostabolin-C™ and PTH 1-30, are administered subcutaneously to rats for 104 weeks at doses of 0.5, 5, 30, and 50 μg/kg/day. The test article is administered subcutaneously. […] This difference could be due to the different amino acids sequences and/or to the different signalling pathways activated by the PTH molecules.

A short description of data set [1]: Plasma pharmacokinetics of Ostabolin-C formulations in female rats, single 200 μg/kg SC, IM, IV. It is filed as in vivo. The conditions noted are these: rat; for Vd: iv. As for the experimental part: Formulations were prepared once only as follows: The bulk freeze-dried peptide was dissolved in 0.01 M acetic acid (supplied by Fisher Scientific, Loughborough, UK) in a 1:1 ratio, re-aliquotted into dosing vials and deep frozen (approximately −70° C.). The vials were freeze-dried at <−20° C. and stored frozen until required. The freeze-dried aliquots for injection were re-constituted with water for injection (supplied by Animalcare Ltd, York, UK). The peptide was dissolved in an appropriate volume of purified water to an approximate concentration of 2 to 3 mg/mL. Phosphate buffered saline (pH 7.4) was added to give the final required concentration (at approximately pH 7.2). The capped vial(s) were mixed thoroughly to ensure the peptide was fully dissolved. Aseptic techniques and glass vials were used throughout dose preparation. The dose was not sterile filtered. […] The calculated amounts of mannitol, sodium acetate trihydrate and glacial acetic acid were weighed and then dissolved in the correct amount of water for injection. The test article was weighed, added to the solution and stirred to dissolve. The pH was adjusted to 4.5 with 0.1N NaOH or HCl (supplied by Covance, Harrogate) depending on initial pH. Water was added to obtain the required volume.
The calculated amount of lipoic acid was weighed and transferred to a suitable container and then dispersed with water for injection. The pH was adjusted to 7.7 with 1N NaOH (supplied by BDH Laboratory Supplies, a division of Merck Ltd, Poole, UK). The test article was weighed, added and stirred to dissolve. The pH was adjusted to 7.5 with 1N NaOH. Propylene glycol was added to obtain the correct volume.
The calculated amount of DL-Methionine was weighed and transferred to a suitable container and dispersed in water for injection. The test article was weighed and added to the solution. The pH was adjusted to 7.5 with 0.1N NaOH. Ethanol was added to make the required volume.

Data set [2] concerns post-menopausal women with low bone mineral density. The settings on record: human, in vivo.
Text: A four month Phase II clinical study was undertaken to investigate the safety, tolerability and efficacy of Ostabolin-C™ in post-menopausal women with low bone mineral density (BMD). […] The clinical protocol is a 16-week phase II randomized, double-blind, placebo-controlled, parallel group, dose finding study to investigate the safety, tolerability and efficacy of Ostabolin-C™ in post-menopausal women with low bone mineral density (BMD). In this study, 261 patients underwent four months of daily dosing of placebo and four active groups. The active groups included daily administration of Ostabolin-C™ in doses of 7.5, 15, 30, and 45 μg. Ostabolin-C™ is formulated as a clear, colorless liquid provided in pre-filled syringes and injected subcutaneously (SC). Subjects self-administer SC 0.1 mL injections of their assigned dose of Ostabolin-C™ 7.5, 15, 30, and 45 μg or placebo daily for 16 weeks in rotating quadrants of the abdomen. The subjects were post-menopausal women (for at least 5 years) with moderate osteoporosis.
The key endpoints for the study include change in mean BMD at the lumbar spine, as assessed by dual energy x-ray absorptiometry (DEXA), and measured by change from the Baseline visit. The Baseline visit is the first visit of the patient, before undergoing any treatment. Secondary efficacy endpoints include the following, as measured by change from Baseline visit:
DEXA: Bone formation and resorption markers: • Mean femoral neck BMD • Serum osteocalcin • Mean trochanter BMD • Serum amino terminal pro-peptide of type 1 pro-collagen (P1NP) • Mean total hip BMD • Mean radial BMD (distal and midshaft) • Bone specific alkaline phosphatase (BSAP) • Bone mineral content (BMC) • Serum C-telopeptide (CTx) • Bone area • Serum N-telopeptide (NTx)
The subject of data set [3] is gonad-intact cynomolgus monkeys. Kind of data set: 52-week (12 months) daily subcutaneous study in gonad-intact young cynomolgus monkeys: bone mass, histomorphometry, % cortical porosity. It is filed as in vivo. The settings on record: for % Cortical Porosity: Tibial Mid-Diaphysis, 12 months. As for the experimental part:
The peptide [Leu^27]cyclo[Glu^22-Lys^26]-hPTH-(1-31)-NH2 Ostabolin-C™ was administered daily by subcutaneous injection to gonad-intact cynomolgus monkeys (4/sex/group) at dose levels of 0, 2, 10 and 25 μg/kg for 52 weeks. Monkeys were 30 to 40 months of age (2.3-3.5 kg) at treatment start. Tibiae were retained for histomorphometry following labeling with calcein green 15 and 5 days prior to euthanasia. Bone mass, as measured by DXA (dual-energy x-ray absorptiometry) and QCT (quantitative computed tomography), was increased at the lumbar spine, femur and tibia. Changes in vertebral BMD (bone mineral density) translated into significant increases in bone strength. […] Tibial cancellous bone volume increased by more than 50% in all the peptide [Leu^27]cyclo[Glu^22-Lys^26]-hPTH-(1-31)-NH2 treated groups compared to controls and in the tibial mid-diaphysis, increases in cortical width and relative cortical area with concurrent decreases in medullary area were observed. […] Increases in indices of bone formation were associated with decreases in indices of bone resorption (decreased bone resorption markers, decreased osteoclast surface area, minimal cortical porosity), consistent with the uncoupling of these events. This combination of anabolic and anti-catabolic actions may have significant therapeutic value in the treatment of osteoporosis.
Comparative data regarding increase in cortical bone porosity in monkey subjects using Ostabolin C at a variety of doses and using the prior art PTHs 1-34 is shown below.

A short description of data set [4]: Ostabolin-C Inhalation Powder (OCIP) Phase I pharmacokinetics. It is filed as in vivo. The settings on record: female, human, blood. On the procedure: A Phase I clinical study was undertaken using Ostabolin-C™ Inhalation Powder (OCIP) to establish an MTD in post-menopausal women, to compare its PK profile with Phase II sub-cutaneous doses, and to evaluate biological activity with cAMP and biomarkers of bone turnover. The OCIP was administered using the Nektar T-326 dry powder inhaler (DPI), which is well-accepted by osteoporosis patients in focus groups. An ascending dose tolerance was used. Each cohort was randomized and included 6 active patients and 2 placebo patients. The patients were post menopausal healthy females that were older than 40 years of age and had no known history of osteoporosis or other bone disease.
The primary measurements were taken at clinical laboratories where patient surveys were taken and the patient could describe any adverse events. Additionally the patients' vital signs were taken with Holter monitoring of EKGs and Spirometry. Pharmacokinetics, such as Ostabolin-C blood levels, PK parameters after a single dose and after 7 days of daily dosing were also measured. Pharmacodynamics were also monitored for changes in bone markers including P1NP, Osteocalcin, NTx, CTx, and urine cyclic AMP.

Read-outs that look alike come from different tables or passages of the source. Positions of bridges follow the written chain, without caps; N, C: chain ends. Residues, ends and D or L forms follow the SMILES beside them.

Consider `CC[C@H](C)[C@H](NC(=O)[C@H](CCC(=O)O)NC(=O)[C@H](CO)NC(=O)[C@@H](NC(=O)[C@@H](N)CO)C(C)C)C(=O)N[C@@H](CCC(N)=O)C(=O)N[C@@H](CC(C)C)C(=O)N[C@@H](CCSC)C(=O)N[C@@H](Cc1c[nH]cn1)C(=O)N[C@@H](CC(N)=O)C(=O)N[C@@H](CC(C)C)C(=O)NCC(=O)N[C@@H](CCCCN)C(=O)N[C@@H](Cc1c[nH]cn1)C(=O)N[C@@H](CC(C)C)C(=O)N[C@@H](CC(N)=O)C(=O)N[C@@H](CO)C(=O)N[C@@H](CCSC)C(=O)N[C@@H](CCC(=O)O)C(=O)N[C@@H](CCCN=C(N)N)C(=O)N[C@H](C(=O)N[C@H]1CCC(=O)NCCCC[C@@H](C(=O)N[C@@H](CC(C)C)C(=O)N[C@@H](CC(C)C)C(=O)N[C@@H](CCC(N)=O)C(=O)N[C@@H](CC(=O)O)C(=O)N[C@H](C(N)=O)C(C)C)NC(=O)[C@H](CCCN=C(N)N)NC(=O)[C@H](CC(C)C)NC(=O)[C@H](Cc2c[nH]c3ccccc23)NC1=O)C(C)C` [Ostabolin-C, [Leu^27]cyclo[Glu^22-Lys^26]-PTH-(1-31)-NH2] (H-SVSEIQLMHNLGKHLNSMERVEWLRKLLQDV-NH2; lactam 22-26), for which, in the data set on rats, the “incidence of osteosarcomas compared to prior art PTH peptides” value is on record as “lower incidences of osteosarcomas”. Also, the bioavailability was 8.7% in data set [1] (female, 200 ug/kg, IM, read-out: Absolute bioavailability) and less than 2% in data set [1] (female, 200 ug/kg, SC, read-out: Absolute bioavailability (Fabs)). Further, the level at 2 min in data set [1] (female, 200 ug/kg, IV, not quantified, read-out: plasma concentrations at 2 minutes post the end of the infusion) was greater than 610 ng/mL. For the same compound, the Vd was found to be 0.479 L/kg in data set [1] (female, 200 ug/kg, IV, female rats, read-out: Vss) and 0.471 L/kg in data set [1] (female, 200 ug/kg, IV, female rats, read-out: Vz). The half-life in data set [1] (female, other: SC, 200 ug/kg, SC, IM and IV dose routes, read-out: terminal elimination half life, where calculable) is 7.2 to 42.4 min; in data set [4] (Day 1, SC, averaged for all subjects, read-out: T½ (converted)) it was 37.2 min. Besides, the clearance in data set [1] (200 ug/kg, IV, female rats) stood at 45.4 mL/min/kg. For the same compound, the time of peak concentration (Tmax) in data set [1] (IV, female rats, post end of infusion) is 5 min; in data set [4] (Day 1, SC, averaged for all subjects) it was 13.2 min. For the same compound, the “Pts > 2.75 mmol/L (sustained)” value in data set [2] came out at 0. The “% Cortical Porosity” value turned out to be 2.5 ± 0.41% in data set [3] (F, 2 μg/kg/day); 2.6 ± 0.85% in data set [3] (F, 10 μg/kg/day); 3.2 ± 0.87% in data set [3] (F, 25 μg/kg/day); 4.2 ± 0.29% in data set [3] (M, 2 μg/kg/day); 5.1 ± 1.08% in data set [3] (M, 10 μg/kg/day); 8.0 ± 5.54% in data set [3] (M, 25 μg/kg/day). Also, the “cortical porosity” value in data set [3] (two highest dose levels, 52 weeks) is reported as “Only minor increases”. Also, the Cmax in data set [4] (subcutaneous, Day 1, normalized to SC 45 μg) was determined as 0.0747 ng/mL. Also, the AUC(0-t) in data set [4] (subcutaneous, Day 1, normalized to SC 45 μg, read-out: AUC(0-4)) worked out at 0.0412 ng·h/mL.
